Results from PMC8460919, “Novel Angiotensin-I Converting Enzyme Inhibitory Peptides Isolated From Rice Wine Lees: Purification, Characterization, and Structure-Activity Relationship” (Frontiers in Nutrition, 2021).
Like-named read-outs stand apart in the source and are kept apart here. Residues, ends and D or L forms follow the SMILES beside them.

Legend:
[1] = biological target: T1, Angiotensin-I converting enzyme (from rabbit lung) (Oryctolagus cuniculus, UniProt P12822); experiment: ACE inhibitory activity (HHL substrate, hippuric acid by HPLC); assay type: biochemical; settings: for inhibition at 1000 µg/mL: concentration 1 mg/ml
T1 construct: Angiotensin-I converting enzyme (from rabbit lung); purchased Sigma Co., USA; host or cells: rabbit lung (tissue-derived)
T1 sequence (P12822 34-1310): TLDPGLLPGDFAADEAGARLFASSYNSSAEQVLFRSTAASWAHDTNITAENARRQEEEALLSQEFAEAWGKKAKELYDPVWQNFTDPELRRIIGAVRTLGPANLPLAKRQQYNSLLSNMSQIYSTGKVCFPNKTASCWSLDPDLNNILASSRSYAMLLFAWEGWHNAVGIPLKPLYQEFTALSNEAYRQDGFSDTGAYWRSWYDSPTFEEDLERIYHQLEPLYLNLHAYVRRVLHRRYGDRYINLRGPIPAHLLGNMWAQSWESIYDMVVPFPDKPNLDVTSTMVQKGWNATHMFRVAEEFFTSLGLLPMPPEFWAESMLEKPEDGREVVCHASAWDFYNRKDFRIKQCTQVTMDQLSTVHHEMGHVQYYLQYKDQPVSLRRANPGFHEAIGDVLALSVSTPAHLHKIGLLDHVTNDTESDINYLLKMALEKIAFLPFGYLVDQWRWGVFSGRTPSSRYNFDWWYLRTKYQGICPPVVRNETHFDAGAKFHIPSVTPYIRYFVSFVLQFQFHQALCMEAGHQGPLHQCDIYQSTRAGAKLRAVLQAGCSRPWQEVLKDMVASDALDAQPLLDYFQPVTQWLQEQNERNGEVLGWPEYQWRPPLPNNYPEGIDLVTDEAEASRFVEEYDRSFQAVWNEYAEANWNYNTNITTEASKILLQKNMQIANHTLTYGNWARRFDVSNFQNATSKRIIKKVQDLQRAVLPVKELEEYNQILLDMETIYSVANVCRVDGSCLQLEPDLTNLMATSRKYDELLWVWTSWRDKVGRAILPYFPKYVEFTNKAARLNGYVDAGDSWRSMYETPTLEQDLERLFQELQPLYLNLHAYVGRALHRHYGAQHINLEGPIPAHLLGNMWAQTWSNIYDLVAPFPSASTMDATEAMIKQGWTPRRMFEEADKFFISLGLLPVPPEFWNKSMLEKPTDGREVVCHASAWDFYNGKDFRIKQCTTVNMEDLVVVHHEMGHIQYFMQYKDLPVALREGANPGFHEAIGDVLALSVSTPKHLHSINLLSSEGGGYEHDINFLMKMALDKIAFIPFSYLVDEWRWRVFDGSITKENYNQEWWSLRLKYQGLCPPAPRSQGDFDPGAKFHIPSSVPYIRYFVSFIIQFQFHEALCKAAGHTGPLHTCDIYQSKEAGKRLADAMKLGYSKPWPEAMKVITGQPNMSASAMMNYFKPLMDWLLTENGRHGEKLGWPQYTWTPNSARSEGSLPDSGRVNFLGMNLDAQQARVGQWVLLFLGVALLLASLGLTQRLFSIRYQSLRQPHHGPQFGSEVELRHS
Description: (§1) Rice wine lees was obtained from Guangdong Shunde Winery Co., Ltd., Shunde, China. Angiotensin-I converting enzyme (from rabbit lung) and N-Hippuryl-His-Leu hydrate (HHL) were purchased from Sigma Co., USA. Other chemicals and reagents were of analytical grade.
Angiotensin-I converting enzyme inhibitory activity was measured using the method described in Wu et al. ([29]) with some modifications. For each reaction, 10 μl of 0.25 U/ ml ACE solution (prepared in 0.01 M potassium phosphate buffer containing 0.5 M NaCl, pH 7.0) was mixed with 10 μl of inhibitor solution and incubated for 5 min at 37°C. Subsequently, 30 μl of HHL solution (5 mM in 0.1 M sodium borate buffer containing 0.3 M NaCl, pH 8.3) was added, followed by incubation at 37°C for 1 h. The reaction was terminated with the addition of 70 μl 1 M HCl before subsequent assays were performed. For the control group, 10 μl ACE solution and 80 μl 1 M HCl were simultaneously added to the mixture. A blank sample was prepared by replacing the inhibitor solution with 10 μl borate buffer. […] Angiotensin-I converting enzyme activity (%) was calculated according to the following equation:
ACE inhibition(%) = (A1-A2)-B/(A1-A2)×100%
Where A1, A2, and B are peak areas corresponding to Hippuric Acid in the control group, the blank and the sample, respectively.

pepsin, chymotrypsin = experiment: Stability of peptides during in vitro digestion by gastrointestinal enzymes (ACEi activity after digestion); assay type: in vitro ADME; settings: in vitro digestion by pepsin and chymotrypsin
Description: Peptide stability was measured according to the methods described in Chen et al. ([30]) with some modifications. For this assay, 2% (w/w) pepsin was dissolved in a KCl–HCl buffer (0.1 mM) adjusted to pH 2.0, and 2% (w/w) chymotrypsin was dissolved in a KCl–NaOH (0.1 mM) buffer adjusted to pH 7.0. Peptides were dissolved at 1 mg/ml in pepsin or chymotrypsin solutions and incubated at 37°C for 4 h. Reactions were terminated by boiling for 15 min. After centrifugation at 4,000 rpm for 15 min, the supernatant was collected, pH was adjusted to 8.0, and samples were assayed for ACEi activity. The supernatant was also analyzed using the previously described RP-HPLC conditions to evaluate changes to the peptides after in vitro digestion.
Control groups were prepared by incubating inactivated pepsin and/or chymotrypsin (boiled for 15 min) with the sample peptides. After incubation, the mixture was processed and analyzed as described.

ACE [2] = biological target: T2, ACE (Oryctolagus cuniculus, UniProt P12822); experiment: Stability of peptides against ACE (pre-incubation with ACE, then ACEi assay); assay type: in vitro ADME, rabbit; settings: for category of ACEi peptide from ACE pre-incubation test: true inhibitor / real substrate / pro-drug type
T2 construct: Angiotensin-I converting enzyme (from rabbit lung); purchased Sigma Co., USA; host or cells: rabbit lung (tissue-derived)
T2 sequence (P12822 34-1310): T1 sequence (P12822 34-1310)
Description: as §1
The stability of peptides against ACE was assayed according to the methods of Deng ([31]), with some modifications. For each reaction, 30 μl of peptides (2 mg/ml) was combined with 30 μl 0.25 U/ml ACE solution and incubated at 37°C for 30 min. Angiotensin-I converting enzyme was then inactivated by boiling the solution for 10 min. As described in section Measurement of ACEi Activity, 20 μl of each peptide sample was used for the detection of ACEi activity.

ACE [3] = biological target: T2, ACE; experiment: Kinetic parameters of ACE inhibition (Lineweaver-Burk plots); assay type: biochemical, rabbit; settings: for type of ACE inhibition: Lineweaver-Burk plots, peptides at 0.05 or 0.1 mg/ml
Description: Angiotensin-I converting enzyme inhibition of purified peptides was determined using Lineweaver–Burk plots according to reported methods ([32]). Samples were added at two fixed concentrations to each reaction mixture, and enzyme activity was measured for different concentrations of the substrate HHL according to the ACE inhibition assay. The curves were described by 1/area and 1/[S], and the kinetics of ACE inhibitors were estimated by comparing the resulting curves.
To clarify the kinetics of inhibition, Lineweaver–Burk plots were generated. Various concentrations of substrate were incubated with ACE solution in the absence or presence of RWLE peptides at 0.05 or 0.1 mg/ml.

[4] = peptide concentration 0.05 mg/ml
[5] = peptide concentration 0.1 mg/ml

Q: Which inhibition at 1000 µg/mL [1] does the source give for CC[C@H](C)[C@H](NC(=O)[C@@H](N)CC(C)C)C(=O)N[C@H](C(=O)N1CCC[C@H]1C(=O)N[C@@H](CCC(N)=O)C(=O)N[C@@H](Cc1c[nH]cn1)C(=O)O)[C@@H](C)CC [H5, LIIPQH] (H-LIIPQH-OH; N-terminus and C-terminus assumed) here?
A: Its inhibition at 1000 µg/mL is 89.3%.

Q: What about the “stability against gastrointestinal enzymes” value (pepsin, chymotrypsin) of the same compound?
A: The value was “stable within the gastrointestinal environment”.

Q: And the “stability against gastrointestinal enzymes” value (pepsin, chymotrypsin; listed as LIIPQH)?
A: Its value is “stable”.

Q: And the “stability against ACE” value (ACE [2])?
A: The value was “stable”.

Q: What about the “category of ACEi peptide from ACE pre-incubation test” value (ACE [2]) of the same compound?
A: Its value is “pro-drug ACE-inhibitors”.

Q: And the “type of ACE inhibition” value (ACE [3])?
A: The value was “non-competitive inhibitors (mostly mixed-type)”.

Q: What about the “type of ACE inhibition” value (ACE [3]; listed as LIIPQH) of the same compound?
A: Its value is “mixed-type ACE inhibitors”.

Q: What about the Vm (ACE [3]; [4]) of the same compound?
A: The Vm was 0.120 ΔA/min.

Q: And the Vm (ACE [3]; [5])?
A: The Vm was 0.070 ΔA/min.

Q: What does the source list for CC[C@H](C)[C@H](NC(=O)[C@@H](N)CC(C)C)C(=O)N[C@H](C(=O)N1CCC[C@H]1C(=O)N[C@@H](CCC(=O)O)C(=O)N[C@@H](Cc1c[nH]cn1)C(=O)O)[C@@H](C)CC [H6, LIIPEH] (H-LIIPEH-OH; N-terminus and C-terminus assumed)?
A: inhibition at 1000 µg/mL [1]: 91.7%; IC50 ([1]; products of each purification step (natural, from RWLE)): 83.9 µM; IC50 ([1]; synthetic peptides): 78.6 µM; stability against gastrointestinal enzymes (pepsin, chymotrypsin): stable within the gastrointestinal environment; stability against gastrointestinal enzymes (pepsin, chymotrypsin; listed as LIIPEH): stable; stability against ACE (ACE [2]): stable; IC50 (ACE [2]; control (co-incubation with inactive ACE), read-out: IC50 without pre-incubation (converted)): 51.3 µM; IC50 (ACE [2]; pre-incubation with ACE, 37°C 30 min, read-out: IC50 with pre-incubation (converted)): 70.7 µM; category of ACEi peptide from ACE pre-incubation test (ACE [2]): pro-drug ACE-inhibitors; type of ACE inhibition (ACE [3]): non-competitive inhibitors (mostly mixed-type); type of ACE inhibition (ACE [3]; listed as LIIPEH): mixed-type ACE inhibitors; Vm (ACE [3]; [4]): 0.099 ΔA/min; Vm (ACE [3]; [5]): 0.049 ΔA/min

Q: With CC[C@H](C)[C@H](N)C(=O)N[C@H](C(=O)N1CCC[C@H]1C(=O)N[C@@H](CCC(N)=O)C(=O)N[C@@H](Cc1c[nH]cn1)C(=O)O)[C@@H](C)CC [IIPQH] (H-IIPQH-OH; N-terminus and C-terminus assumed) as the compound, how does the IC50 ([1]; synthetic peptides) read?
A: The IC50 was 1780 µM.

Q: How did the IC50 ([1]; synthetic peptides) turn out when CC[C@H](C)[C@H](NC(=O)[C@@H](N)CC(C)C)C(=O)N[C@H](C(=O)N1CCC[C@H]1C(=O)N[C@@H](CCC(N)=O)C(=O)N[C@@H](Cc1c[nH]cn1)C(=O)N[C@@H](Cc1c[nH]cn1)C(=O)O)[C@@H](C)CC [LIIPQHH] (H-LIIPQHH-OH; N-terminus and C-terminus assumed) was run?
A: The IC50 was 1410 µM.

Q: For CC[C@H](C)[C@H](NC(=O)[C@@H](N)CC(C)C)C(=O)N[C@H](C(=O)N1CCC[C@H]1C(=O)N[C@@H](CCC(N)=O)C(=O)N[C@@H](Cc1c[nH]cn1)C(=O)N[C@@H](Cc1ccc(O)cc1)C(=O)O)[C@@H](C)CC [LIIPQHY] (H-LIIPQHY-OH; N-terminus and C-terminus assumed), which IC50 ([1]; synthetic peptides) is on record?
A: The IC50 was 1230 µM.

Q: CC[C@H](C)[C@H](NC(=O)[C@@H](N)CC(C)C)C(=O)N[C@H](C(=O)N1CCC[C@H]1C(=O)N[C@@H](CCC(N)=O)C(=O)O)[C@@H](C)CC [LIIPQ] (H-LIIPQ-OH; N-terminus and C-terminus assumed) was tested. Which IC50 ([1]; synthetic peptides) did it give?
A: The IC50 was 2390 µM.

Q: CC[C@H](C)[C@H](NC(=O)[C@@H](N)CC(C)C)C(=O)N[C@H](C(=O)N1CCC[C@H]1C(=O)O)[C@@H](C)CC [LIIP] (H-LIIP-OH; N-terminus and C-terminus assumed) was tested. Which IC50 ([1]; synthetic peptides) did it give?
A: Its IC50 is 2040 µM.

Q: CC[C@H](C)[C@H](NC(=O)[C@H](CC(C)C)NC(=O)[C@@H](N)CC(C)C)C(=O)N[C@H](C(=O)N1CCC[C@H]1C(=O)N[C@@H](CCC(N)=O)C(=O)N[C@@H](Cc1c[nH]cn1)C(=O)O)[C@@H](C)CC [LLIIPQH] (H-LLIIPQH-OH; N-terminus and C-terminus assumed) was tested. Which IC50 ([1]; synthetic peptides) did it give?
A: The IC50 was 995 µM.
